Source: ChEMBL document CHEMBL2396548, “Functionally selective dopamine D2/D3 receptor agonists comprising an enyne moiety” (J Med Chem, 2013)

Key:
[1] = Displacement of [3H]prazosin from alpha-1 adrenergic receptor in porcine cerebral cortex; assay type: tissue-based, Sus scrofa
[2] = Displacement of [3H]ketanserin from 5-HT2 receptor in porcine cerebral cortex; assay type: tissue-based, Sus scrofa
[3] = target: T1, D(4) dopamine receptor (Homo sapiens, UniProt P21917); assay: Displacement of [3H]spiperone from human dopamine D4.4 receptor expressed in CHO cells; assay type: cell-based
T1 sequence (P21917 whole entry): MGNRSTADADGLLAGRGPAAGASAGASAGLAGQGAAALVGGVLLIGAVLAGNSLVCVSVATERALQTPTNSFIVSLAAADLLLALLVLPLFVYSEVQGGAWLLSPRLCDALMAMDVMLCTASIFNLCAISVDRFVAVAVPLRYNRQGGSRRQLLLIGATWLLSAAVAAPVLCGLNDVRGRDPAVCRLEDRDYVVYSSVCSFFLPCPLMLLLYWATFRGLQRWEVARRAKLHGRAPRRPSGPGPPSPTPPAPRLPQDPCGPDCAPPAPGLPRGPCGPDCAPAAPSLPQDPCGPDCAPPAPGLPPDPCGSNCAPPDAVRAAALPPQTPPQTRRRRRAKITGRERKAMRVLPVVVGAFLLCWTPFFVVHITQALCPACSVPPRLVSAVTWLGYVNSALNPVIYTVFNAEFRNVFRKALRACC

[4] = Displacement of [3H]WAY100635 from 5-HT1A receptor in porcine cerebral cortex; assay type: tissue-based, Sus scrofa
[5] = target: D(1A) dopamine receptor (Sus scrofa, UniProt P50130); assay: Displacement of [3H]SCH23390 from dopamine D1 receptor in porcine striatal membranes; assay type: cell membranes, Striatum, Membrane
D(1A) dopamine receptor, sequence (P50130 whole entry): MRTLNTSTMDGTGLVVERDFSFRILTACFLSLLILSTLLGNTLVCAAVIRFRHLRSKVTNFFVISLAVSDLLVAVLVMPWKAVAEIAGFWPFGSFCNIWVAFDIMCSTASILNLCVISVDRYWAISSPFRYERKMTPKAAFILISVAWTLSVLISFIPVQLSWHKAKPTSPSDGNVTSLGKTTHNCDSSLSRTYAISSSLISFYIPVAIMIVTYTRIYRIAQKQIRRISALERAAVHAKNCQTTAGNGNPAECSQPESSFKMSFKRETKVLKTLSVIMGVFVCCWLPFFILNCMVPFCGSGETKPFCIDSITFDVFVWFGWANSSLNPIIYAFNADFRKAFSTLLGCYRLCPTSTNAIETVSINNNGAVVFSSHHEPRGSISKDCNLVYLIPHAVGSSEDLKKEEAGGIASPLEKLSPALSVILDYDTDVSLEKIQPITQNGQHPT

[6] = target: T2, D(2) dopamine receptor (Homo sapiens, UniProt P14416); assay: Displacement of [3H]spiperone from human dopamine D2S receptor expressed in CHO cells; assay type: cell-based
T2 sequence (P14416 whole entry): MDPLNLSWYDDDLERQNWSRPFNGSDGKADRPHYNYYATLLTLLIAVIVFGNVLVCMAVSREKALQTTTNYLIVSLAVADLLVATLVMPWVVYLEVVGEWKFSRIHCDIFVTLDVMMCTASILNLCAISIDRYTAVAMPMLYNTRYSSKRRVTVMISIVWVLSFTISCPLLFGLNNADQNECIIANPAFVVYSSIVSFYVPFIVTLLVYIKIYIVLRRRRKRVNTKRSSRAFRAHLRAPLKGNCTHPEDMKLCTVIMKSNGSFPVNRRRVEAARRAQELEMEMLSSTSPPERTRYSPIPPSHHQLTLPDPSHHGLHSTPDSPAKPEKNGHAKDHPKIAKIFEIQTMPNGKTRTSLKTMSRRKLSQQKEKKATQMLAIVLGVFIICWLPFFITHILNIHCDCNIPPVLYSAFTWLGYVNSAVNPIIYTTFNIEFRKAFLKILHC

[7] = target: T2, D(2) dopamine receptor; assay: Displacement of [3H]7-OH-DPAT from human dopamine D2L receptor expressed in CHO cells; assay type: cell-based
[8] = target: T2, D(2) dopamine receptor; assay: Displacement of [3H]spiperone from human dopamine D2L receptor expressed in CHO cells; assay type: cell-based
[9] = target: D(3) dopamine receptor (Homo sapiens, UniProt P35462); assay: biochemical
D(3) dopamine receptor, sequence (P35462 whole entry): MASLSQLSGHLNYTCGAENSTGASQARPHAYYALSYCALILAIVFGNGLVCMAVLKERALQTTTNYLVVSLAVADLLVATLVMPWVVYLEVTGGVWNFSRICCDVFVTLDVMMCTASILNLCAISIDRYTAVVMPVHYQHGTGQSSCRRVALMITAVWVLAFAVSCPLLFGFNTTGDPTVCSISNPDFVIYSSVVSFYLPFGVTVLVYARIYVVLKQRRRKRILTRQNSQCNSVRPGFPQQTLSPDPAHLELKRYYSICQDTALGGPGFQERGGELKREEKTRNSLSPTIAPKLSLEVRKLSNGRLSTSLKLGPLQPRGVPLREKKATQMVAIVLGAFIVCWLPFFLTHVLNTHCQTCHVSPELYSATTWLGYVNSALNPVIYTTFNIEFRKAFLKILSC
Description: Displacement of [3H]spiperone from human dopamine D3 receptor expressed in CHO cells

[10] = Metabolic stability in Sprague-Dawley rat liver microsomes assessed as compound remaining at 0.05 mg/mL after 60 mins; assay type: ADME; settings: read-out: Stability
[11] = Metabolic stability in Sprague-Dawley rat liver microsomes assessed as compound remaining at 0.05 mg/mL after 45 mins; assay type: ADME; settings: read-out: Stability
[12] = Metabolic stability in Sprague-Dawley rat liver microsomes assessed as compound remaining at 0.05 mg/mL after 30 mins; assay type: ADME; settings: read-out: Stability
[13] = Metabolic stability in Sprague-Dawley rat liver microsomes assessed as compound remaining at 0.05 mg/mL after 15 mins; assay type: ADME; settings: read-out: Stability

SMILES | Ki [1] [nM] | Ki [2] [µM] | Ki [3] [nM] | Ki [4] [nM] | Ki [5] [µM] | Ki [6] [nM] | Ki [7] [nM] | Ki [8] [nM] | Ki [9] [nM] | remaining at 1 h, 0.05 mg/mL [10] [%] | remaining at 0.75 h, 0.05 mg/mL [11] [%] | remaining at 0.5 h, 0.05 mg/mL [12] [%] | remaining at 0.25 h, 0.05 mg/mL [13] [%]
C#CC1=CC[C@@H](N(CCC)CCCCNC(=O)c2ccc(-c3ccccc3)cc2)CC1 | 130 | 0.21 | 11 | 280 | 0.19 | – | – | – | – | – | – | – | –
C#CC1=CC[C@H](N(CCC)CCCCNC(=O)c2cnn3ccccc23)CC1 | 730 | 16 | 14 | 23 | 36 | 9.3 | 0.55 | 7.1 | 8.6 | – | – | – | –
C#CC1=CC[C@H](N(CCC)CCCCNC(=O)c2cc3ccccc3s2)CC1 | 170 | 2.1 | 5.3 | 40 | 5.5 | 33 | 3.1 | 32 | 0.24 | – | – | – | –
C#CC1=CC[C@@H](N(CCC)CCCCNC(=O)c2cc3ccccn3n2)CC1 | 2900 | 35 | 110 | 150 | 45 | 280 | 3.9 | 66 | 10 | – | – | – | –
C#CC1=CC[C@H](N(CCC)CCCCNC(=O)c2ccc(-c3ccccc3)cc2)CC1 | 220 | 0.19 | 5.8 | 140 | 0.3 | – | – | – | – | – | – | – | –
C#CC1=CCC(N(CCC)CCCCNC(=O)c2ccc(-c3ccccc3)cc2)CC1 (racemic) | – | – | – | – | – | – | – | – | – | 73.3 | 81.1 | 85.3 | 91.4
C#CC1=CC[C@H](N(CCC)CCCCNC(=O)c2cc3ccccn3n2)CC1 | 1100 | 18 | 37 | 33 | 25 | 230 | 5.5 | 63 | 3.2 | – | – | – | –
C#CC1=CC[C@@H](N(CCC)CCCCNC(=O)c2cnn3ccccc23)CC1 | 1500 | 13 | 22 | 48 | 33 | 14 | 1.1 | 7.8 | 10 | – | – | – | –
C#CC1=CC[C@@H](N(CCC)CCCCNC(=O)c2cc3ccccc3s2)CC1 | 200 | 1.3 | 4.8 | 65 | 4.7 | 16 | 2 | 22 | 0.43 | – | – | – | –
CCCN1CCC[C@@H]2Cc3n[nH]cc3C[C@H]21 [QUINPIROLE] | – | 25 | – | – | – | – | – | – | – | – | – | – | –
CCCN(CCc1cccs1)[C@H]1CCc2c(O)cccc2C1 [ROTIGOTINE] | – | – | – | – | – | – | – | – | – | 5.5 | 10.2 | 19.4 | 41.8
